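Cells were grown in 96-well plates and exposed to each compound for 48 hours at five concentrations; endpoints were interpolated linearly between bracketing concentrations, or set to the highest concentration if not reached. TGI: total growth inhibition.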
Columns and labels:
Experiment in all cases: inhibition of tumour cell growth, NCI panel, 48 h
M14 melanoma = test system: M14 melanoma
K-562 leukemia = test system: K-562 leukemia
SF-295 CNS = test system: SF-295 CNS
A549 NSCLC = test system: A549 NSCLC
SW-620 colon = test system: SW-620 colon
OVCAR-4 ovarian = test system: OVCAR-4 ovarian
HOP-62 NSCLC = test system: HOP-62 NSCLC
NCI-H226 lung = test system: NCI-H226 lung
MALME-3M melanoma = test system: MALME-3M melanoma
NCI-H23 lung = test system: NCI-H23 lung
SNB-75 CNS = test system: SNB-75 CNS
OVCAR-8 ovarian = test system: OVCAR-8 ovarian
U251 CNS = test system: U251 CNS
NCI/ADR-RES ovarian = test system: NCI/ADR-RES ovarian
SF-268 CNS = test system: SF-268 CNS
MCF7 breast = test system: MCF7 breast
HL-60(TB) leukemia = test system: HL-60(TB) leukemia

| Structure (SMILES) | TGI (M14 melanoma) [µM] | TGI (K-562 leukemia) [µM] | TGI (SF-295 CNS) [µM] | TGI (A549 NSCLC) [µM] | TGI (SW-620 colon) [µM] | TGI (OVCAR-4 ovarian) [µM] | TGI (HOP-62 NSCLC) [µM] | TGI (NCI-H226 lung) [µM] | TGI (MALME-3M melanoma) [µM] | TGI (NCI-H23 lung) [µM] | TGI (SNB-75 CNS) [µM] | TGI (OVCAR-8 ovarian) [µM] | TGI (U251 CNS) [µM] | TGI (NCI/ADR-RES ovarian) [µM] | TGI (SF-268 CNS) [µM] | TGI (MCF7 breast) [µM] | TGI (HL-60(TB) leukemia) [µM] |
| --- | --- | --- | --- | --- | --- | --- | --- | --- | --- | --- | --- | --- | --- | --- | --- | --- | --- |
| CCOC(=O)C12OC(OCC)(CC1(OCC)OCC)C1(CC1)C2=O (stereo not given) | > 100 | > 100 | > 100 | > 100 | > 100 | > 100 | > 100 | > 100 | > 100 | > 100 | > 100 | > 100 | > 100 | > 100 | > 100 | > 100 |  |
| COc1ccc(NC(=S)c2ccc(CN3CCCCC3)s2)cc1 | 35.4 | 42.1 | 38.1 | 47.4 | 42.4 | > 100 | 52.7 |  | 37.6 | 29.5 |  | 45.4 | 34.8 | 93.8 | > 100 | 33.3 | 31.9 |
| COc1ccc(C2=CC(C(C)=C(C(N)=O)C(N)=O)C=C(c3ccc(Br)cc3)C2)c(OC)c1 (stereo not given) | > 100 | > 100 | > 100 | > 100 | > 100 | > 100 | > 100 | > 100 |  | > 100 | > 100 | > 100 | > 100 | > 100 | > 100 | > 100 | > 100 |
| O=C(C(=O)n1ccc2ccccc21)n1ccc2ccccc21 |  | > 100 | > 100 | > 100 | > 100 | 78 | > 100 | > 100 | > 100 | > 100 | 56 | > 100 | > 100 | > 100 | > 100 | > 100 |  |
| COc1cc2c(/C=C3/C(=O)Nc4cccc(Cl)c43)c(Cl)[nH]c2cc1C | 7.78 | 3.64 | 4.21 | 6.23 | 5.25 | 3.48 | 10.2 | 7.59 |  | 9.36 | 4.03 | 11.8 | 3.99 | 3.45 | 19.8 | 8.35 | 4.56 |
| O=C1c2cc3c(cc2CC12Cc1ccc4c(c1C2=O)CCC4)CCCC3 (stereo not given) | > 100 | > 100 | > 100 | > 100 | > 100 | > 100 | > 100 |  | > 100 | > 100 | > 100 | > 100 | > 100 | > 100 | > 100 | > 100 | > 100 |
| O=c1[nH]c(=O)n(C2COC(CO)C2O)cc1F (stereo not given) | > 100 | > 100 | > 100 | > 100 | > 100 | > 100 | > 100 | > 100 | > 100 | > 100 | > 100 | > 100 | > 100 | > 100 | > 100 | > 100 |  |
